Source: a melting point compilation (Tetko et al.)

melting point | SMILES
177 °C | O=C1CCC(=O)N1Br
68 °C | CC(C)(CO)C(O)C(=O)NCCCO (racemic)
131 to 134 °C | C[C@@H](OC(C)(C)C)[C@H](NC(=O)OCC1c2ccccc2-c2ccccc21)C(=O)O
195 °C | CCOC(=O)C1=C(C)NC(=O)NC1c1cccc(OC)c1OC (stereo not drawn)
-52 °C | COc1cccc(OC)c1
96 to 97 °C | CC1(c2ccccc2)CC(C(=NOCC(O)CN2CCN(c3ccccc3)CC2)c2cc3ccccc3o2)C1 (stereo not drawn)
223 to 226 °C | COc1cc2c(cc1OC)C(=S)NCC2
300 °C | Nc1ccc(O)c2c1C(=O)c1c(O)ccc(N)c1C2=O
167 °C | C#CC1(O)CCC2C3C(C)CC4=C(CCC(=O)C4)C3CCC21C (stereo not drawn)
-23 °C | C[Si](C)(C)N=C=N[Si](C)(C)C
128 to 130 °C | NC(=S)C1CCN(C(=O)OCc2ccccc2)CC1
41.5 °C | CC1(C)c2ccccc2Oc2ccccc21
228 °C | CC=C(C(=CC)c1ccc(O)cc1)c1ccc(O)cc1
192 to 196 °C | CC12CCC(=O)CC1CCC1C2CCC2(C)C1CCC21OCCO1 (stereo not drawn)
-67.5 °C | CCC(C)CCC(C)(O)CC (stereo not drawn)
64.5 °C | CC(C)COC(=O)c1ccc(N)cc1
215 °C | Cc1[nH]c2nc(C(F)(F)F)nn2c(=O)c1Cl
162 to 170 °C | CC(CCC(O)(c1ccccc1)c1ccccc1)C1CCC2C3C(O)CC4CC(O)CCC4(C)C3CC(O)C12C (stereo not drawn)
-74.1 °C | CCCCC#CCCCCC
39.5 °C | CC(C)COC(=O)C(C)Oc1ccc(Oc2ccc(Cl)cc2)cc1 (stereo not drawn)
208 to 211 °C | Cc1nc(-c2ccc(S(=O)(=O)N(C)C)cc2)c(-c2ccc(S(=O)(=O)N(C)C)cc2)o1
43 °C | CC1CCC(C(C)C)C(OC(=O)C(Cc2ccccc2)Cc2ccccc2)C1 (stereo not drawn)
132 to 134 °C | Cc1cc(C)c(S(=O)(=O)n2cnc([N+](=O)[O-])n2)c(C)c1
37 to 39 °C | COc1ccc(C)cc1O
101 to 103 °C | CC(C=O)=CN
51 to 55 °C | CC(C)(C)OC(=O)NCc1cccc(CO)c1
38 °C | CCN1C(=O)CSC1=S

melting point | SMILES
60.5 °C | O=C(O)CCCCC1CCSS1 (stereo not drawn)
153 to 155 °C | O=S1(=O)CCc2ccccc2CC1
58 °C | C=C(C)c1ccc(C)c2ccc(C=O)c-2c1
252 to 255 °C | O=c1[nH]c(=O)n(-c2cccc(C(F)(F)F)c2)c2c1CCCC2
121 °C | CCC(O)C1CCCCN1 (stereo not drawn)
188 °C | CC12CCC(C(O)=C/C1=N\Nc1ccccc1)C2(C)C (stereo not drawn)
87 to 88 °C | Nc1ccc(CN2CCCCC2)cc1
73.5 °C | Cc1cnc2ccccc2c1C
88 °C | COC(=O)C1Cc2ccccc2C(=O)C1C(=O)OC (stereo not drawn)
28 °C | CC1(C)CCCC(C)(C)N1
87 °C | CCCCOC(=O)C1=C(C)NC(C)=C(C(=O)OCCCC)C1c1ccco1
144 °C | COC(=O)c1cc(C(=O)OC)c(C(=O)OC)cc1C(=O)OC
106 to 110 °C | Cc1nn(-c2ccccc2)c(C)c1CO
113 °C | COC(=O)c1ccc(N)c(Cl)c1
80.5 °C | CC(C)OC(=O)C(C)(C)Oc1ccc(C(=O)c2ccc(Cl)cc2)cc1
130 to 132 °C | CC(=O)c1csc(-c2cc(C)on2)n1
157 to 158 °C | CC(C)(C)c1cc(CC(=O)O)cc(C(C)(C)C)c1O
-118 °C | CCC(C)CC
120 to 121 °C | O[C@@H]1CC2=C(CCCC2)C[C@@H]1O
295 °C | COc1cc(O)c2c(=O)c(O)c(-c3ccc(O)c(O)c3)oc2c1
119 °C | CC1=C(C(=O)O)CCCO1
76 to 80 °C | O=C1CCC2OCC(c3ccccc3)N12 (stereo not drawn)
-28 °C | C=CC(C)(C)O
-15 °C | O=C(c1ccc(F)cc1)C1CC1
164 °C | Cc1c(C)c(Br)c2ccccc2c1Br
44 to 45 °C | O=[N+]([O-])c1ccccc1OCCN1CCOCC1
69 °C | CC(C)c1ccc2cc(C(C)C)ccc2c1

Further lines, the compound ahead of its results:

SMILES | melting point
O=C1Cc2ccccc2C(=O)Cc2ccccc21 | 207 to 209 °C
Cc1cc(C)c(CC(=O)c2oc3ccccc3c2NC(=O)c2ccccc2)c(C)c1 | 198 to 199 °C
Cc1ccc(-c2cc(N)n(-c3ccccc3)n2)cc1 | 173 to 176 °C
CCC1(C2CCC(OC)CC2)C(=O)NC(=O)NC1=O (stereo not drawn) | 239 to 240 °C
Cc1c(S(=O)(=O)c2ccc(Cl)cc2)csc1C(=O)Cl | 131 to 132 °C
CC12CCC3C(CCC4CC(C[N+](=O)[O-])=CCC43C)C1CCC2O (stereo not drawn) | 129 °C
CCCCCCCCCCCCCCCC(=O)c1ccccc1 | 59 °C
CC(C)(C)N=C=O | 85.5 °C
N#CCc1c[nH]c2ccccc12 | 36 °C
O=C(O)CCCc1ccc(Br)cc1 | 67 to 69 °C
O=C(Cl)c1ccc(-c2cccs2)s1 | 73.3 to 74.4 °C
Cc1ccc(O)c(C(O)Cc2ccccc2)c1 (stereo not drawn) | 83 °C
COc1ccc(C(N)CCO)cc1 (stereo not drawn) | 82 to 86 °C
c1ccc(-c2cn3c(n2)SCC3)cc1 | 147 to 148 °C
FC(F)(F)c1ccc(N=C=S)cc1 | 41 to 43 °C
CN(C)c1ccc2c(C(F)(F)F)cc(=O)oc2c1 | 147 to 149 °C
Nc1ccc(Cn2cncn2)cc1 | 124 to 126 °C
O=C(c1ccccc1)c1coc(-c2ccc(Cl)cc2)c1S(=O)(=O)c1ccccc1 | 96 to 97 °C
COP(=S)(OC)Oc1cc(Cl)c(Cl)cc1Cl | 41 °C
NC(=O)C(F)(Br)C(F)(F)F (stereo not drawn) | 83 to 84 °C
Clc1cc2c(oc3c(Cl)cccc32)c(Cl)c1Cl | 190 °C
O=C1C=C(NCc2ccc(Cl)c(Cl)c2)C(=O)c2ccccc21 | 217 °C
O=[N+]([O-])/C(=C/c1ccccc1[N+](=O)[O-])c1ccccc1 | 107 °C
COC(=O)c1ccccc1CS(=O)(=O)NC(=O)Nc1nc(OC)cc(OC)n1 | 187 °C
CCCCOC(=O)c1ccc([N+](=O)[O-])cc1 | 35.5 °C

SMILES | melting point
O=Cc1ccc(-c2ccc(C=O)cc2)cc1 | 148 °C
Cc1nc2cc(Cl)ccc2s1 | 69 °C
N#CC1=C(N)Oc2c(c(C(F)(F)F)nn2-c2ccccc2)C1c1ccccc1Cl (stereo not drawn) | 166 °C
CSC(=O)c1cccc2nnsc12 | 133 °C
CCCCCCCCCCOc1ccc(C(C)=O)cc1OCCCCCCCCCC | 61 to 65 °C
Nc1cccc([N+](=O)[O-])c1N | 158 °C
COC(=O)c1ccc(S(=O)(=O)c2ccc(C(=O)OC)cc2)cc1 | 193 to 200 °C
NNC(=O)CSc1ccccc1[N+](=O)[O-] | 161 to 171 °C
CC(=O)NC(CCC(N)=O)C(=O)O (stereo not drawn) | 197 °C
c1ccc(Cc2ccc3ccccc3c2)cc1 | 58 °C
O=S1(=O)c2ccccc2-c2ccccc21 | 231 to 236 °C
N#CCON=C(C#N)c1ccccc1 | 55 °C
O=C(/C=C/c1ccc(-c2ccc(Cl)cc2)o1)c1ccco1 | 148 °C
Nc1ccc(N=Nc2ccc(N=Nc3ccc(N)cc3)cc2)cc1 | 247 °C
CCOC(=O)c1ccc([N+](=O)[O-])cc1NC(=O)c1ccccc1 | 179 °C
CCOC1OC(=O)c2c(OC)cccc21 (stereo not drawn) | 67 °C
O=C(O)c1cc(Cl)c(Cl)cc1Cl | 166 °C
CC(=O)NC1C(Oc2ccccc2[N+](=O)[O-])OC(CO)C(O)C1O (stereo not drawn) | 204 to 208 °C
CCN(CC)CCC#N | -64 °C
O=c1ccc2cc3ccoc3c(O)c2o1 | 252 °C
Nc1c(F)cc(Br)cc1Br | 63 °C
Cc1nc(/C(C#N)=N/Nc2ccc(Cl)cc2)sc1/N=N/c1ccccc1 | 225 °C
N#CCS(=O)(=O)c1ccc(Cl)cc1 | 171 °C
C[C@]12CCC(=O)C=C1CC[C@@H]1[C@@H]2CC[C@]2(C)C(=O)CC[C@@]12O | 256 to 260 °C
Brc1ccc2c(c1)Oc1ccccc1O2 | 90 °C

SMILES | melting point
CC(F)(F)CCl | -56.2 °C
CC(=O)Oc1ccc2ccc(OC(C)=O)cc2c1 | 131 °C
Cc1ncc(C#N)c(N)n1 | 249 to 252 °C
NC(=O)CCSCCC(N)=O | 183 to 186 °C
COc1ccc2cc(Br)ccc2c1CCl | 144 to 146 °C
c1ccc(CC(c2ccccc2)c2ccccc2)cc1 | 52 °C
c1ccc(-c2nnc(-c3ccccn3)c(-c3ccccn3)n2)nc1 | 186 to 188 °C
O=c1c(Cc2c(O)oc3ccccc3c2=O)c(O)oc2ccccc12 | 290 °C
CCCCOC(=O)C(C)Oc1ccc(Oc2ccc(C(F)(F)F)cn2)cc1 (stereo not drawn) | 13 °C
NCc1cc(-c2ccco2)on1 | 46 to 49 °C
O=S(=O)(Cl)Cc1ccccc1 | 92 °C
C(=Nc1ccccc1)=Nc1ccccc1 | 169 °C
CC(=O)Cc1ccccc1C(=O)OCC(=O)N(C)CCO | 70.5 °C
O=[N+]([O-])c1ccc(N/N=C/c2ccccc2)c([N+](=O)[O-])c1 | 240 °C
Cc1cc(Br)ccc1S(=O)(=O)Cl | 65 to 67 °C
Cc1ccncc1C=NO | 180 °C
Fc1ccc(-c2cc3ccccc3[nH]2)cc1 | 190 to 192 °C
N#Cc1ccc2c(c1)[N+]([O-])=C(c1ccc(C3=[N+]([O-])c4cc(C#N)ccc4C3=O)cc1)C2=O | 360 °C
COc1cccc2sc(N)nc12 | 156 °C
C=C(C)C(=O)Cl | -60 °C
Cc1cccc2c(O)cc(C(F)(F)F)nc12 | 128 to 131 °C
Brc1nncs1 | 70 to 73 °C
O=C1c2ccccc2C(=O)c2c(Nc3cccc4c3C(=O)c3ccccc3C4=O)cccc21 | 300 °C
COP(=S)(OC)SCc1nc(N)nc(N)n1 | 165 °C
